Test results from paper PMC10235067, “Increased renal elimination of endogenous and synthetic pyrimidine nucleosides in concentrative nucleoside transporter 1 deficient mice” (Nature Communications, 2023).
Where “and” joins values, the source holds several entries; their conditions need not be identical. Identical values can stand only once. Counter-ions that a name gives are not always drawn.

Test: Gemcitabine plasma pharmacokinetics in Slc28a1+/+ and Slc28a1-/- mice
Conditions: for AUCINF_D_obs / AUCINF_D_pred / AUCINF_obs / AUCINF_pred / AUC_%Back_Ext_obs / AUC_%Back_Ext_pred / AUC_%Extrap_obs / AUC_%Extrap_pred / AUCall / AUClast / AUClast_D / AUMCINF_obs / AUMCINF_pred / AUMC_%Extrap_obs / AUMC_%Extrap_pred / AUMClast / C0 / Cl_obs / Cl_pred / Clast / Clast_pred / Cmax_D / HL_Lambda_z / Lambda_z / MRTINF_obs / MRTINF_pred / MRTlast / Tlast / Tmax / Vss_obs / Vss_pred / Vz_obs / Vz_pred: Gemcitabine in plasma, iv gemcitabine 50mg/kg, per mouse; for AUC (Last): plasma
[1] = Slc28a1-/- mice, single i.v. dFdC 50 mg/kg

Structure (SMILES): Nc1ccn([C@@H]2O[C@H](CO)[C@@H](O)C2(F)F)c(=O)n1 [dFdC, Gemcitabine hydrochloride, reference compound]
- AUCINF_D_obs (KO mice): 916.304 kg·ng·min/mL/mg and 1339.88 kg·ng·min/mL/mg and 778.001 kg·ng·min/mL/mg and 1050.65 kg·ng·min/mL/mg and 1326.68 kg·ng·min/mL/mg and 1607.46 kg·ng·min/mL/mg
- AUCINF_D_pred (KO mice): 916.913 kg·ng·min/mL/mg and 1340.31 kg·ng·min/mL/mg and 775.108 kg·ng·min/mL/mg and 1031 kg·ng·min/mL/mg and 1323.42 kg·ng·min/mL/mg and 1604.92 kg·ng·min/mL/mg
- AUCINF_obs (KO mice): 45815.2 ng·min/mL and 66994.2 ng·min/mL and 38900.1 ng·min/mL and 52532.6 ng·min/mL and 66334.2 ng·min/mL and 80373 ng·min/mL
- AUCINF_pred (KO mice): 45845.6 ng·min/mL and 67015.6 ng·min/mL and 38755.4 ng·min/mL and 51550 ng·min/mL and 66171.1 ng·min/mL and 80246 ng·min/mL
- AUC_%Back_Ext_obs (KO mice): 23.4974% and 21.9481% and 43.9469% and 42.6077% and 48.9911% and 43.8068%
- AUC_%Back_Ext_pred (KO mice): 23.4818% and 21.941% and 44.1109% and 43.4198% and 49.1119% and 43.8762%
- AUC_%Extrap_obs (KO mice): 23.7% and 27.5311% and 0.9315% and 2.802% and 0.4504% and 6.001%
- AUC_%Extrap_pred (KO mice): 23.7507% and 27.5543% and 0.5618% and 0.9493% and 0.2051% and 5.852%
- AUCall (KO mice): 36446.4 ng·min/mL and 50206 ng·min/mL and 39423.8 ng·min/mL and 51060.7 ng·min/mL and 66882.1 ng·min/mL and 76930.3 ng·min/mL
- AUClast (KO mice): 34957 ng·min/mL and 48549.9 ng·min/mL and 38537.7 ng·min/mL and 51060.7 ng·min/mL and 66035.4 ng·min/mL and 75549.7 ng·min/mL
- AUClast_D (KO mice): 699.14 kg·ng·min/mL/mg and 970.999 kg·ng·min/mL/mg and 770.754 kg·ng·min/mL/mg and 1021.21 kg·ng·min/mL/mg and 1320.71 kg·ng·min/mL/mg and 1510.99 kg·ng·min/mL/mg
- AUMCINF_obs (KO mice): 6487547 min*min*ng/mL and 15108021 min*min*ng/mL and 317047 min*min*ng/mL and 1417805 min*min*ng/mL and 460548 min*min*ng/mL and 2237155 min*min*ng/mL
- AUMCINF_pred (KO mice): 6504522 min*min*ng/mL and 15124898 min*min*ng/mL and 306594 min*min*ng/mL and 1123964 min*min*ng/mL and 449037 min*min*ng/mL and 2195280 min*min*ng/mL
- AUMC_%Extrap_obs (KO mice): 93.2939% and 96.2322% and 8.26% and 31.0459% and 4.579% and 71.0667%
- AUMC_%Extrap_pred (KO mice): 93.3114% and 96.2364% and 5.1318% and 13.0191% and 2.133% and 70.5148%
- AUMClast (KO mice): 435061 min*min*ng/mL and 569242 min*min*ng/mL and 290860 min*min*ng/mL and 977634 min*min*ng/mL and 439460 min*min*ng/mL and 647283 min*min*ng/mL
- C0 (KO mice): 2226.24 ng/mL and 3096.19 ng/mL and 4174.86 ng/mL and 5972.33 ng/mL and 9031.34 ng/mL and 9852.43 ng/mL
- Cl_obs (KO mice): 1091.34 mL/min/kg and 746.334 mL/min/kg and 1285.35 mL/min/kg and 951.789 mL/min/kg and 753.759 mL/min/kg and 622.099 mL/min/kg
- Cl_pred (KO mice): 1090.62 mL/min/kg and 746.095 mL/min/kg and 1290.14 mL/min/kg and 969.932 mL/min/kg and 755.617 mL/min/kg and 623.084 mL/min/kg
- Clast (KO mice): 24.8237 ng/mL and 27.6006 ng/mL and 29.5353 ng/mL and 24.934 ng/mL and 28.2215 ng/mL and 23.0093 ng/mL
- Clast_pred (KO mice): 24.8933 ng/mL and 27.6326 ng/mL and 17.7456 ng/mL and 8.289 ng/mL and 12.8177 ng/mL and 22.4033 ng/mL
- Cmax_D (KO mice): 41.5984 kg·ng/mL/mg and 55.7076 kg·ng/mL/mg and 53.2658 kg·ng/mL/mg and 59.6169 kg·ng/mL/mg and 79.356 kg·ng/mL/mg and 84.6224 kg·ng/mL/mg
- HL_Lambda_z (KO mice): 303.191 min and 463.2 min and 8.504 min and 40.9198 min and 7.338 min and 145.3 min
- Lambda_z (KO mice): 0.002286 min⁻¹ and 0.001496 min⁻¹ and 0.08151 min⁻¹ and 0.01694 min⁻¹ and 0.09446 min⁻¹ and 0.00477 min⁻¹
- MRTINF_obs (KO mice): 141.603 min and 225.512 min and 8.15 min and 26.989 min and 6.943 min and 27.8346 min
- MRTINF_pred (KO mice): 141.879 min and 225.692 min and 7.911 min and 21.8034 min and 6.786 min and 27.3569 min
- MRTlast (KO mice): 12.4456 min and 11.7249 min and 7.547 min and 19.1465 min and 6.655 min and 8.568 min
- Tlast (KO mice): 120 min and 60 min and 240 min
- Tmax (KO mice): 5 min
- Vss_obs (KO mice): 154.537 L/kg and 168.308 L/kg and 10.4759 L/kg and 25.6879 L/kg and 5.23323 L/kg and 17.3159 L/kg
- Vss_pred (KO mice): 154.735 L/kg and 168.388 L/kg and 10.2063 L/kg and 21.1478 L/kg and 5.12762 L/kg and 17.0456 L/kg
- Vz_obs (KO mice): 477.366 L/kg and 498.742 L/kg and 15.7693 L/kg and 56.1887 L/kg and 7.97936 L/kg and 130.407 L/kg
- Vz_pred (KO mice): 477.049 L/kg and 498.582 L/kg and 15.8281 L/kg and 57.2597 L/kg and 7.99903 L/kg and 130.613 L/kg
- AUCINF_D_obs (WT mice): 1342.37 kg·ng·min/mL/mg and 2003.95 kg·ng·min/mL/mg and 1404.16 kg·ng·min/mL/mg and 1832.16 kg·ng·min/mL/mg and 1677.59 kg·ng·min/mL/mg and 1947.35 kg·ng·min/mL/mg
- AUCINF_D_pred (WT mice): 1351.51 kg·ng·min/mL/mg and 2009.55 kg·ng·min/mL/mg and 1397.88 kg·ng·min/mL/mg and 1826.34 kg·ng·min/mL/mg and 1669.05 kg·ng·min/mL/mg and 1936.73 kg·ng·min/mL/mg
- AUCINF_obs (WT mice): 100198 ng·min/mL and 70207.8 ng·min/mL and 91608.1 ng·min/mL and 83879.3 ng·min/mL and 97367.3 ng·min/mL
- AUCINF_pred (WT mice): 100478 ng·min/mL and 69893.8 ng·min/mL and 91317 ng·min/mL and 83452.5 ng·min/mL and 96836.3 ng·min/mL
- AUC_%Back_Ext_obs (WT mice): 12.8582% and 20.8763% and 29.2762% and 32.2576% and 32.4305% and 25.1142%
- AUC_%Back_Ext_pred (WT mice): 12.7713% and 20.8181% and 29.4077% and 32.3604% and 32.5963% and 25.252%
- AUC_%Extrap_obs (WT mice): 9.702% and 18.5437% and 0.7839% and 0.5327% and 0.8134% and 0.9221%
- AUC_%Extrap_pred (WT mice): 10.3129% and 18.7708% and 0.3382% and 0.2157% and 0.3062% and 0.3788%
- AUCall (WT mice): 81617.2 ng·min/mL and 71149.3 ng·min/mL and 92539.9 ng·min/mL and 85061.6 ng·min/mL and 98831 ng·min/mL
- AUClast (WT mice): 81617.2 ng·min/mL and 69657.4 ng·min/mL and 91120.1 ng·min/mL and 83197 ng·min/mL and 96469.4 ng·min/mL
- AUClast_D (WT mice): 1212.13 kg·ng·min/mL/mg and 1632.34 kg·ng·min/mL/mg and 1393.15 kg·ng·min/mL/mg and 1822.4 kg·ng·min/mL/mg and 1663.94 kg·ng·min/mL/mg and 1929.39 kg·ng·min/mL/mg
- AUMCINF_obs (WT mice): 5069956 min*min*ng/mL and 20471433 min*min*ng/mL and 1064873 min*min*ng/mL and 1254821 min*min*ng/mL and 1108567 min*min*ng/mL and 1728699 min*min*ng/mL
- AUMCINF_pred (WT mice): 5292862 min*min*ng/mL and 20755711 min*min*ng/mL and 1020250 min*min*ng/mL and 1213897 min*min*ng/mL and 1047980 min*min*ng/mL and 1652866 min*min*ng/mL
- AUMC_%Extrap_obs (WT mice): 62.651% and 92.1199% and 7.346% and 5.469% and 8.737% and 7.417%
- AUMC_%Extrap_pred (WT mice): 64.2239% and 92.2278% and 3.293% and 2.282% and 3.461% and 3.17%
- AUMClast (WT mice): 1893578 min*min*ng/mL and 1613171 min*min*ng/mL and 986649 min*min*ng/mL and 1186197 min*min*ng/mL and 1011712 min*min*ng/mL and 1600474 min*min*ng/mL
- C0 (WT mice): 1738.74 ng/mL and 4426.87 ng/mL and 4597.66 ng/mL and 7279.69 ng/mL and 6681.38 ng/mL and 5877.84 ng/mL
- Cl_obs (WT mice): 499.014 mL/min/kg and 712.172 mL/min/kg and 545.803 mL/min/kg and 596.095 mL/min/kg and 513.519 mL/min/kg
- Cl_pred (WT mice): 739.914 mL/min/kg and 497.623 mL/min/kg and 715.371 mL/min/kg and 547.543 mL/min/kg and 599.143 mL/min/kg and 516.335 mL/min/kg
- Clast (WT mice): 26.282 ng/mL and 23.9761 ng/mL and 24.8646 ng/mL and 23.6637 ng/mL and 31.0775 ng/mL and 39.3598 ng/mL
- Clast_pred (WT mice): 28.1263 ng/mL and 24.3375 ng/mL and 10.6806 ng/mL and 9.552 ng/mL and 11.6372 ng/mL and 16.0822 ng/mL
- Cmax_D (WT mice): 35.2165 kg·ng/mL/mg and 78.8031 kg·ng/mL/mg and 72.4804 kg·ng/mL/mg and 90.8107 kg·ng/mL/mg and 83.992 kg·ng/mL/mg and 78.0677 kg·ng/mL/mg
- HL_Lambda_z (WT mice): 171.744 min and 537.158 min and 15.3422 min and 14.2945 min and 15.2178 min and 15.8118 min
- Lambda_z (WT mice): 0.004036 min⁻¹ and 0.00129 min⁻¹ and 0.04518 min⁻¹ and 0.04849 min⁻¹ and 0.04555 min⁻¹ and 0.04384 min⁻¹
- MRTINF_obs (WT mice): 75.5375 min and 204.311 min and 15.1675 min and 13.6977 min and 13.2162 min and 17.7544 min
- MRTINF_pred (WT mice): 78.3253 min and 206.57 min and 14.5971 min and 13.2932 min and 12.5578 min and 17.0687 min
- MRTlast (WT mice): 31.2438 min and 19.7651 min and 14.1643 min and 13.018 min and 12.1604 min and 16.5905 min
- Tlast (WT mice): 240 min and 120 min
- Tmax (WT mice): 15 min
- Vss_obs (WT mice): 56.2718 L/kg and 101.954 L/kg and 10.8018 L/kg and 7.47626 L/kg and 7.87812 L/kg and 9.11723 L/kg
- Vss_pred (WT mice): 57.954 L/kg and 102.794 L/kg and 10.4424 L/kg and 7.27861 L/kg and 7.52393 L/kg and 8.81315 L/kg
- Vz_obs (WT mice): 184.58 L/kg and 386.714 L/kg and 15.7633 L/kg and 11.2559 L/kg and 13.087 L/kg and 11.7142 L/kg
- Vz_pred (WT mice): 183.332 L/kg and 385.636 L/kg and 15.8341 L/kg and 11.2918 L/kg and 13.154 L/kg and 11.7784 L/kg
- AUC (Last) (Slc28a1+/+ mice, single i.v. dFdC 50 mg/kg): 81307.3 ± 4123.2 ng x min/mL and 81307 ng x min/mL
- AUC (Last) [1]: 52203.2 ± 3611.3 ng x min/mL and 52203 ng x min/mL
- CL (systemic clearance) [1]: 950 mL/min/kg
